Data: PubChem BioAssay AID2060485 (Molecular Pharmacology Branch, DTP, NCI, 2025)

Tested on: A375 multi-cell spheroids with HUVEC/MSC, viability
Test: Anticancer human tumor A375 cell line growth inhibition [GQUAD];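 note: spheroids exposed to compounds for seven days before readout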
Conditions: for IC50: curve of first compound; for viability, T/C: stronger effect = lower value
Source text: DNA G-quadruplex Stabilizer Agents in Combinations in Complex Spheroids
A high-throughput screen of multi-cell type tumor spheroids was designed to identify active combinations of DNA G-quadruplex stabilizer agents and targeted small molecules. Complex spheroids include a stromal component modeled by human endothelial cells (HUVEC) and fibroblasts modeled by human mesenchymal stem cells (MSCs). The concentration ranges selected for each drug and investigational agent were based upon clinically achievable concentrations if the clinical Cmax of the agent was known.
Compounds. The drugs and investigational agents: pidnarulex (CX-5461; NSC782164), APTO-253 (NSC789042), BRACO-19 (NSC847499), peposertib (NSC802822), ceralasertib (NSC780249), elimusertib (NSC800525), camonsertib (NSC841442), AZD-1390 (NSC803789), olaparib (NSC753686), talazoparib (NSC767125), ART-558 (NSC835418), sotorasib (NSC818433), MRTX-1133 (NSC836407), SN-38 (NSC673596), topotecan (NSC609699), etoposide (NSC141540), doxorubicin (NSC123127), gemcitabine (NSC613327), 5-fluorouracil (NSC19893), paclitaxel (NSC125973), vemurafenib (NSC761431), panobinostat (NSC761190), R-306465 (JNJ-16241199; NSC773264), adavosertib (NSC754352), TP-3654 (NSC805149), carboplatin (NSC241240), KSQ-4279 (NSC840948), and staurosporine (NSC755774) were obtained from the National Cancer Institute (NCI) Developmental Therapeutics Program Chemical Repository (34). The FDA-approved anticancer drug set is available from the NCI Developmental Therapeutics Program. […] The stock solutions were prepared in dimethyl sulfoxide (DMSO, Sigma-Aldrich, St. Louis, MO, cat. D2650) at 800-fold the tested concentration and stored at -70 degrees C prior to their use. All drugs and investigational agents were tested over a range starting from a high concentration at or near the clinical Cmax and decreasing in half-log increments. If the clinical Cmax for an agent had not been determined, the highest concentration tested was 10 microM.
2.3 Cell Culture. All cells were maintained in an incubator at 37 degrees C and 5% CO2 with 95% humidity. The PDC lines were cultured according to standard operating procedures established by the NCI PDMR. All PDCs were thawed and cultured in Matrigel-coated flasks prepared with a working solution of 1X Ham's F-12 nutrient mix, without supplementation (Invitrogen, cat. 11765054), 100 U/mL penicillin-streptomycin (Invitrogen, cat. 15140122), and 2.5% Matrigel (Corning Inc., cat. 354248) for the first three passages. The 857933-349-R-J2-PDC line was cultured in 6C/Colon 1B media, which includes advanced DMEM/F-12 (Thermo Fisher Scientific, cat. 12634028), 10 mM HEPES (Thermo Fisher Scientific, cat. 15630080), 1X GlutaMAX supplement (Thermo Fisher Scientific, cat. 35050061), 0.1 mg/mL primocin (InvivoGen, cat. ant-pm-2), 10% defined fetal bovine serum, heat inactivated (HyClone Laboratories Inc., cat. SH30070.03HI), 50% L-WRN conditioned media (ATCC, cat. CRL-3276), 1.25 mM N-Acetyl-L-cysteine (Sigma-Aldrich, cat. A9165), 10 mM nicotinamide (Sigma-Aldrich, cat. N0636), 1X B-27 supplement (Thermo Fisher Scientific, cat. 17504044), 1X N-2 supplement (Thermo Fisher Scientific, cat. 17502048), 10 microM Y-27632 dihydrochloride (Tocris Bioscience, cat. 1254), and 50 ng/mL human EGF recombinant protein (Thermo Fisher Scientific, cat. PHG0311). The 485176-168-R4-J1-PDC line was cultured in Panc media, which includes all 6C/Colon 1B media components plus 100 ng/mL human FGF-10 (Thermo Fisher Scientific, cat. 100-26), 500 nM SB-431542 (Selleckchem, cat. S1067), and gastrin (Tocris, cat. 3006).
[…]

Nc1ccn(C2OC(CO)C(O)C2(F)F)c(=O)n1 (configuration not stated) + Cc1[nH]c2ccc(F)cc2c1-c1nc2c3cccnc3c3ncccc3c2[nH]1
IC50 (second compound 0.0316 µM): < 31.6 nM
IC50 (second compound 0.1 µM): < 31.6 nM
IC50 (second compound 0.316 µM): < 31.6 nM
IC50 (second compound 1 µM): < 31.6 nM
IC50 (second compound 3.16 µM): < 31.6 nM
IC50 (second compound 10 µM): < 31.6 nM
viability, T/C (second compound 0.0316 µM, first compound 0.0316 µM): 20.4%
viability, T/C (second compound 0.0316 µM, first compound 0.1 µM): 11%
viability, T/C (second compound 0.0316 µM, first compound 0.316 µM): 10.3%
viability, T/C (second compound 0.0316 µM, first compound 1 µM): 8.14%
viability, T/C (second compound 0.0316 µM, first compound 3.16 µM): 10.7%
viability, T/C (second compound 0.0316 µM, first compound 10 µM): 10.2%
viability, T/C (second compound 0.1 µM, first compound 0.0316 µM): 22.9%
viability, T/C (second compound 0.1 µM, first compound 0.1 µM): 9.94%
viability, T/C (second compound 0.1 µM, first compound 0.316 µM): 12%
viability, T/C (second compound 0.1 µM, first compound 1 µM): 9.5%
viability, T/C (second compound 0.1 µM, first compound 3.16 µM): 12.2%
viability, T/C (second compound 0.1 µM, first compound 10 µM): 8.91%
viability, T/C (second compound 0.316 µM, first compound 0.0316 µM): 21.1%
viability, T/C (second compound 0.316 µM, first compound 0.1 µM): 12.7%
viability, T/C (second compound 0.316 µM, first compound 0.316 µM): 11.2%
viability, T/C (second compound 0.316 µM, first compound 1 µM): 10.8%
viability, T/C (second compound 0.316 µM, first compound 3.16 µM): 10.8%
viability, T/C (second compound 0.316 µM, first compound 10 µM): 11.3%
viability, T/C (second compound 1 µM, first compound 0.0316 µM): 22.9%
viability, T/C (second compound 1 µM, first compound 0.1 µM): 12.7%
viability, T/C (second compound 1 µM, first compound 0.316 µM): 14.8%
viability, T/C (second compound 1 µM, first compound 1 µM): 13.6%
viability, T/C (second compound 1 µM, first compound 3.16 µM): 12.8%
viability, T/C (second compound 1 µM, first compound 10 µM): 11.8%
viability, T/C (second compound 3.16 µM, first compound 0.0316 µM): 15.4%
viability, T/C (second compound 3.16 µM, first compound 0.1 µM): 13.1%
viability, T/C (second compound 3.16 µM, first compound 0.316 µM): 13%
viability, T/C (second compound 3.16 µM, first compound 1 µM): 13.9%
viability, T/C (second compound 3.16 µM, first compound 3.16 µM): 19%
viability, T/C (second compound 3.16 µM, first compound 10 µM): 13.9%
viability, T/C (second compound 10 µM, first compound 0.0316 µM): 16.1%
viability, T/C (second compound 10 µM, first compound 0.1 µM): 10.7%
viability, T/C (second compound 10 µM, first compound 0.316 µM): 10.9%
viability, T/C (second compound 10 µM, first compound 1 µM): 10.3%
viability, T/C (second compound 10 µM, first compound 3.16 µM): 13.2%
viability, T/C (second compound 10 µM, first compound 10 µM): 12%
